Structures are written as SMILES.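 Growth conditions: 96-well plates. Treatment: test compound, 48 hours, 5 concentrations. Analysis: linear interpolation between bracketing concentrations; unreached endpoints set to highest concentration. Here, GI50 denotes the concentration required for 50% inhibition of growth. The concentration for full growth arrest is given as TGI.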 Peptide text beside a SMILES is read from it. * marks the point of attachment. X26 = Clc1c(Cl)c(Cl)c(O*)c(Cl)c1Cl; Boc = CC(C)(C)OC(=O)*; OBn = c1ccc(CO*)cc1; Bn = c1ccc(C*)cc1

We go through 17 compounds from PubChem BioAssay (NCI).

Holding throughout (experiment): NCI anticancer screen, dose series, 48 h
Assay [1] relates to MOLT-4 leukemia.
In assay [2] the test system is SF-268 CNS.
In assay [3] the test system is TK-10 renal.
Assay [4] deals with HS 578T breast.
Assay [5] deals with CAKI-1 renal.
Assay [6] has as its system NCI-H460 lung.
The test system of assay [7] is SNB-19 CNS.
Assay [8] concerns UACC-62 melanoma.
The subject of assay [9] is IGROV1 ovarian.
Assay [10] concerns SK-MEL-28 melanoma.

With `N#Cc1nc(C2CCC(=O)O2)oc1N` (stereo unspecified), the TGI in assay [1], in assay [2], in assay [3], in assay [4], in assay [5] and in assay [6] was more than 100 µM each time. The TGI in assay [7], in assay [8], in assay [9] and in [10] was more than 100 µM each time.

In the case of `C=C1C[C@@H]2CC[C@@]34C[C@H]5O[C@H]6[C@@H](O3)[C@H]3O[C@H](CC[C@@H]3O[C@H]6[C@H]5O4)CC(=O)C[C@@H]3[C@@H](OC)[C@@H](C[C@H](O)CN)O[C@H]3C[C@H]3O[C@@H](CC[C@@H]1O2)C[C@@H](C)C3=C`, the TGI in assay [1] was 0.0479 µM; in assay [2], more than 1 µM; in assay [3], more than 1 µM; in assay [4], more than 0.187 µM; in assay [5] it was 0.366 µM; in assay [6] it was 0.161 µM. Further, the TGI in assay [7] is more than 1 µM; in [8] it was more than 1 µM; in [9], more than 0.253 µM; in assay [10], more than 1 µM. Moreover, the GI50 in assay [7] was 0.00127 µM.

With `O=P1(C(O)/C=C/c2ccccc2)N(Cc2ccccc2)[C@@H]2CCCC[C@H]2N1Cc1ccccc1` (stereo partly specified), the TGI in [1] is 9.77 µM; in assay [2], 14.2 µM; in assay [3], 28.5 µM; in assay [4], 10.6 µM; in assay [5], 65.5 µM; in assay [6], 14.7 µM. For the same compound, the TGI in assay [7] came to 20.6 µM; in assay [8] it was 21.2 µM; in [9], 14.4 µM; in assay [10], 28.1 µM.

Regarding `O=C1CS/C(=N/N=C/c2cn(Cc3ccc(Cl)cc3Cl)c3ccccc23)N1`, the TGI in assay [1] is more than 100 µM; in assay [2] it was more than 100 µM; in [3], more than 100 µM; in [4], 83.6 µM; in assay [5], more than 100 µM; in [6], more than 100 µM. For the same compound, the TGI in [7], in assay [8], in assay [9] and in [10] was more than 100 µM in each case.

As for `Cc1cc(OCc2nnc3sc(NC(=O)c4ccccc4)nn23)ccc1Cl`, the TGI is more than 100 µM in [1]; more than 100 µM in assay [2]; more than 100 µM in assay [3]; 95.6 µM in [4]; 36 µM in assay [5]; more than 100 µM in [6]. Also, the TGI in [7] is more than 100 µM; in [8], more than 100 µM; in assay [9], 68 µM; in assay [10] it was more than 100 µM.

For `Cc1ccc(S(=O)(=O)c2c(O)c3ccc(O)c(C)c3oc2=O)cc1`, the TGI in [1], in assay [2], in assay [3], in assay [4], in assay [5] and in assay [6] was more than 100 µM each time. The TGI in assay [7], in assay [8], in assay [9] and in assay [10] was more than 100 µM each time.

With `O=C1c2cccnc2S(=O)(=O)N1c1ccc([N+](=O)[O-])cc1`, the TGI in assay [1], in [2], in assay [3], in assay [4], in assay [5] and in assay [6] was more than 100 µM in each case. Moreover, the TGI in assay [7], in assay [8], in [9] and in assay [10] was more than 100 µM throughout.

In the case of `CC1(C)N=C(N)N=C(N)N1c1cccc(OCc2cccc(N)c2)c1`, the TGI in assay [1], in assay [2], in assay [3], in assay [4], in [5] and in assay [6] was more than 100 µM in each case. Besides, the TGI in [7], in assay [8], in assay [9] and in assay [10] was more than 100 µM in each case.

For `Cc1cn(CCCCCOC(=O)NC(CCCNC(N)=O)C(=O)O)c(=O)[nH]c1=O` (stereo unspecified), the TGI in assay [1], in assay [2], in assay [3], in assay [4], in [5] and in assay [6] was more than 100 µM each time. The TGI in [7], in [8], in [9] and in [10] was more than 100 µM each time.

For the compound `CC(C)CC(NC(=O)C(CCC(=O)OCc1ccccc1)NC(=O)OC(C)(C)C)C(=O)NC(COCc1ccccc1)C(=O)NC(Cc1ccccc1)C(=O)Oc1c(Cl)c(Cl)c(Cl)c(Cl)c1Cl` (stereo unspecified) (Boc-E(OBn)LS(Bn)F-X26; configuration not given here), the TGI in [1] was 54.1 µM; in [2], more than 100 µM; in assay [3], 72.1 µM; in assay [4], 65.9 µM; in assay [5] it was 48.4 µM; in [6] it was 59.8 µM. For the same compound, the TGI in assay [7] came out at 83 µM; in [8], 44.4 µM; in assay [9], 56.3 µM; in assay [10], 56.4 µM.

`Cc1cccc(NS(=O)(=O)c2ccc(N=Nc3c(O)c(C(=O)O)cc4ccccc34)cc2)n1`: the TGI in assay [1], in assay [2], in [3], in assay [4], in assay [5] and in [6] was more than 100 µM each time. Moreover, the TGI in assay [7], in assay [8], in assay [9] and in [10] was more than 100 µM throughout.

With `O=C(OC12CC3CC(CC(C3)C1)C2)c1ccc(NCc2cc(O)ccc2O)cc1`, the TGI in assay [1] was found to be 0.451 µM; in [2], 5.69 µM; in [3], 1.96 µM; in assay [4], 4.41 µM; in assay [5] it was 0.825 µM; in assay [6], 16.6 µM. The TGI in assay [7] stood at 11.7 µM; in assay [8] it was 3.28 µM; in [9] it was 0.816 µM; in assay [10] it was 1.62 µM.

In the case of `C#CCOCC12C=CC(O1)C1COC(=O)C12` (stereo unspecified), the TGI in assay [1], in [2], in assay [3], in assay [4], in [5] and in assay [6] was more than 100 µM throughout. Besides, the TGI in assay [7], in [8], in assay [9] and in [10] was more than 100 µM each time.

With `C=C(C)[C@H]1CC(=O)/C(C)=C\CC/C(C)=C/CC[C@@]2(C)O[C@@H]2C1`, the TGI in assay [1] was more than 100 µM; in assay [2], 61.2 µM; in [3], 76.5 µM; in assay [4], more than 100 µM; in [5], 9.41 µM; in assay [6], 33.1 µM. Moreover, the TGI in assay [7] is more than 100 µM; in assay [8] it was 26.2 µM; in assay [9], more than 100 µM; in assay [10], 64.6 µM.

As to `C[n+]1c(-c2ccc(NC(=O)c3ccc(C(=O)Nc4ccc(-c5cn6ccccc6[n+]5C)cc4)cc3)cc2)cn2ccccc21`, the TGI in assay [1], in assay [2], in [3], in [4], in assay [5] and in [6] was more than 100 µM throughout. In addition, the TGI in assay [7], in assay [8], in [9] and in assay [10] was more than 100 µM each time.

Regarding `CCOc1snc(C(Cl)(Cl)Cl)c1Cl`, the TGI in [1] was 38 µM; in [2] it was 46.1 µM; in [3] it was more than 100 µM; in assay [4] it was more than 100 µM; in assay [5] it was 83.7 µM; in [6], more than 100 µM. Moreover, the TGI is 74.9 µM in assay [7], more than 100 µM in assay [8], more than 100 µM in [9] and 94 µM in assay [10].

For the compound `COc1ccc(OC/C(N=Cc2ccncc2)=N/NC(=O)c2ccncc2)cc1`, the TGI in assay [1], in assay [2], in [3], in assay [4], in [5] and in [6] was more than 100 µM throughout. The TGI in assay [7], in assay [8], in assay [9] and in [10] was more than 100 µM throughout.
